The target in assay [1] is 5FW-BPTF bromodomain (His9-tagged, 5-fluorotryptophan-labelled). As to the kind of experiment: NMR titration.
Assay [2] has as its target BPTF. The note with it: prior lead inhibitor; cited from earlier work.
For assay [3], the target named is 5FW-BPTF bromodomain (Homo sapiens, UniProt Q12830). Kind of assay: SPR, 5FW-labeled His9-BPTF on NTA chip, steady-state. The class given is binding. (In general: In SPR one partner is held on a chip, and binding of the other changes the refractive index at the surface.)
The test system of assay [4] is BPTF. The note with it: ITC, cited from earlier work. For orientation: ITC needs no label: the signal is the heat of the interaction.

Results on three compounds are retold here after publication PMC7393680 (Organic & biomolecular chemistry, 2020).

Where two headings read alike, the source gives them in different places.

Regarding “Histone variant H2AZ.1 K4ac,K11ac peptide”, the Kd (usually the equilibrium constant for the complex coming apart) in assay [1] is 720000 nM.
For `COC(=O)c1cccc(NC(=O)NC2CCN(c3ccnc(Nc4ccc(F)cc4)n3)C2)c1` (centres unmarked) [AU1], in assay [2], the Kd is 2800 nM.
As to `CN(C)CCCOc1ccc(-c2cc(NCCCn3cccn3)nc(S(C)(=O)=O)n2)cc1` [compound 2, TP-238], the Kd is 250 ± 20 nM in assay [3] and 120 nM in assay [4] (read-out: Reported BPTF Kd, unlabeled BPTF, thesgc.org). Further, the “fold weaker affinity for BPTF over CECR2” value in assay [4] (BPTF vs CECR2) is listed as 10 fold.
